{"source": "paper PMC10319809", "about": "“Chronic UCN2 treatment desensitizes CRHR2 and improves insulin sensitivity” (Nature Communications, 2023)", "key": {"[1]": {"system": "AKT1S1, IRS1, AKT phosphorylation", "test": "Western blot of p-AKT1S1, p-IRS1, p-AKT in gastrocnemius muscle", "assay_type": "in vivo, mouse", "procedure": "Animal tissues were snap-frozen in liquid nitrogen and stored at −80 °C. Frozen tissues were homogenized in ice-cold RIPA buffer (Sigma Aldrich, St. Louis, MO), and protein concentrations were determined using a BCA protein assay (Thermo Fisher Scientific, Waltham, MA). Protein extracts were separated on NuPAGE 4–20% Bis-Tris gels (Bio-Rad, Hercules, CA) and blotted onto PVDF membranes (Bio-Rad, Hercules, CA). Membranes were blocked for 1 h at room temperature in TBST (0.1%) containing 5% milk. Membranes were then incubated overnight at 4 °C with primary antibodies against pSer183-AKT1S1, total AKT1S1, pSer3-IRS1, total IRS1, pSer473-AKT, and total AKT (Cell Signaling, Danvers, MA #5936, #2610, #2385, #2382, #4060, and #4691, respectively) diluted 1:1000. Following three washing steps with TBST (0.1%), membranes were incubated with HRP-conjugated secondary antibodies for 1 h at room temperature. After thorough washing, proteins were visualized with SuperSignal West Dura Extended Duration Substrate (Thermo Fisher Scientific, Waltham, MA) on the Bio-Rad ChemiDoc MP. Immunoreactive bands were quantified using Image J Software (NIH)."}, "[2]": {"system": "AKT1S1, IRS1, AKT phosphorylation", "test": "Ex vivo soleus muscle insulin signaling (Western blot)", "set-up": "species or system mouse", "details": "100 nM UCN2 pre-treatment, n = 2", "procedure": "Soleus muscle was removed from fed animals anesthetized by an intraperitoneal injection of pentobarbital (10 mg/100 g body weight). Dissected soleus muscles were suspended at 5 mN of tension in incubation chambers (Model 610/820 M, Danish Myo-Technology, Denmark) containing Krebs-Ringer-Buffer supplemented with 0.1% BSA, 2 mM pyruvate and 8 mM Mannitol. During the entire incubation period the KRB was maintained at 30 °C and oxygenated with 95% O2 and 5% CO2. Following 10 min of pre-incubation muscles were incubated in Krebs buffer +/− 100 nM (−7.0 log[M]) UCN2. At the next time point, 30 min later, muscles were placed in baths containing Krebs buffer +/− 100 nM (−7.0 [M]) UCN2. At the next time point, 15 min later, muscles were placed in baths containing Krebs buffer +/− 100 nM (−7.0 log[M]) UCN2 + /− 60 nM Insulin (Actrapid, Novo Nordisk, Bagsvaerd, Denmark) for 15 min. For the ex vivo glucose uptake studies, 1 mM [^3H]2-deoxyglucose (Perkin-Elmer) and 7 mM [^14C]mannitol (Perkin-Elmer) was also added at this time. Muscles that were in saline in the first bath, saline in the second bath, and saline in the third bath were assigned to the SSS group. Muscles that were in saline in the first bath, saline in the second bath, and UCN2 in the third bath were assigned to the SSU group. […]"}}, "note": "Where “and” joins values, the source holds several entries; their conditions need not be identical. Equal values may be shown once. Where no end group is shown, it is not given here.", "data": [{"substance": "IVLSLDVPIGLLQILLEQARARAAREQATTNARILARVGHC-NH2 (C-terminus assumed) [UCN2, Urocortin 2]", "values": [{"measurement": "Relative pAKT1s1/AKT1s1", "setting": "[1]; Fig 5F, UCN2 vs Saline, individual samples", "result": "0.4889 and 0.4355 and 0.6101 and 0.3366"}, {"measurement": "Relative pIRS1/IRS1", "setting": "[1]; Fig 5G, UCN2 vs Saline, individual samples", "result": "0.5347 and 0.4912 and 0.4136 and 0.3459"}, {"measurement": "Relative pAKT/AKT", "setting": "[1]; Fig 5H, UCN2 vs Saline, individual samples", "result": "0.5139 and 0.5838 and 0.5951 and 0.5852"}, {"measurement": "AKT1S1, IRS1 and AKT phosphorylation, acute treatment", "setting": "[1]; gastrocnemius, acute UCN2, Western blot", "result": "dephosphorylation"}, {"measurement": "AKT1S1, IRS1 and AKT phosphorylation after UCN2 pre-treatment ex vivo", "setting": "[2]", "result": "increased AKT1S1, IRS1, and AKT phosphorylation"}]}]}
